Laboratory results from patent US12104173B2, “Method for differentiation of human pluripotent stem cell lines in suspension culture” (AGENCY FOR SCIENCE, TECHNOLOGY AND RESEARCH, priority 2018, dated 2024).

Tested on: X13 induced pluripotent stem cells (iPSCs) on microcarriers
Test: screening of Wnt pathway activators: mesoderm induction (T-bra, KDR+PDGFRα−) by flow cytometry
Type: cell-based, human
Conditions: at 72 hours, compared to other Wnt pathway modulators
Experimental: (A) is a column graph showing two different concentrations of seven Wnt pathway activators (BIO, SB-216763, CHIR98014, Inhibitor VIII, Kenpaullone, DRF053 dihydrochloride and Wnt3a). which were selected from literature reviews and screened with CHIR99021 as a control for the disclosed hematopoietic differentiation protocol. The viability of the X13 induced pluripotent stem cells (iPSCs) on microcarriers were tabulated accordingly 24 hours post treatment of the various Wnt pathway modulators. […] (B) is a column graph showing the percentage of mesogerm induction.
Human induced pluripotent stem cell-microcarrier (hiPSC-MC) aggregates (1×10^6 cells/ml, or 1e6 cells/nil) were transferred to mesoderm induction medium (cytokines all from Stemcell Technologies) plus Stemline II Hematopoietic Stem Cell Expansion medium (SL2) in either 6-well ultra-low attachment plates (5 ml) under continuous agitation at 75 rpm or 125 ml spinner flasks (50 ml) under continuous agitation at 36 rpm. Daily medium changes as indicated: Day 0: SL2+30 ng/ml BMP4+50 ng/ml VEGF-165+40 ng/ml Activin A+12-15 μM CHIR-99021; Day 1: SL2+30 ng/ml BMP4+50 ng/ml VEGF-165+40 ng/ml Activin A; Day 2: SL2+20 ng/ml BMP4+30 ng/ml VEGF165+5 ng/ml Activin A+10 ng/ml bFGF+20 ng/ml SCF+0.4 ng/ml β-estradiol. Samples were collected on day 1 and day 3 for flow cytometry analysis of T-brachyury (T-Bra) and KDR/PDGFRα cells, respectively.

Cc1c[nH]c(-c2cnc(NCCNc3ccc(C#N)cn3)nc2-c2ccc(Cl)cc2Cl)n1 [CHIR-99021, 6-[[2-[[4-(2,4-Dichlorophenyl)-5-(5-methyl-1H-imidazol-2-yl)-2-pyrimidinyl]amino]ethyl]amino]-3-pyridinecarbonitrile]
KDR+PDGFRα− population: significantly highest
